{
  "source": "patent US10851069B2",
  "about": "“Compositions of crystallized hydrophobic compounds and methods of making and using same” (Massachusetts Institute of Technology, priority 2016, dated 2020)",
  "key": {"[1]": {"assay": "Drug extraction (HPLC) of retrieved capsules, remaining loaded drug", "assay_type": "in vivo, C57BL/6 mice", "conditions": "crystalline, co-encapsulated with islets, after 460 days compared to 6 months (180 days)", "method": "Calibration curves were obtained on an Agilent LC 1100 Series (Agilent Technologies, CA, USA) equipped with binary pump ([…] Å), auto-sampler (G1313 Å), degasser and photodiode detector (DAD, […] Å). Chemstation was used for system control, data processing and data acquisition for LC. Chromatographic separation was achieved by an analytical Waters Atlantis T3 C18 column (5 μm, 4.6×250 mm). The temperature of column and auto-sampler were kept at 20° C. Stock solution of GW2580 was prepared in dimethyl sulfoxide (DMSO) at a target concentration of 10 mg/ml and appropriate dilutions were made in DMSO to prepare standards (0.25-2500 μg/ml) for calibration curve of GW2580. 10 μl of standard solution was injected and the analytes were eluted by gradient mode using (A) acetonitrile and (B) 0.1% formic acid in water at a constant flow rate of 1 ml/min. The gradient conditions of mobile phase were as follows: 0 min 10% A, 10 min 95% A, 14 min 95% A, 16 min 10% A, 20 min 10% A. Stock solution of curcumin was prepared in dimethyl sulfoxide (DMSO) at a target concentration of 10 mg/ml and appropriate dilutions were made in DMSO to prepare standards (0.05-500 μg/ml) for calibration curve of curcumin. 10 μl of standard solution was injected and the analytes were eluted by gradient mode using (A) acetonitrile and (B) 0.1% formic acid in water at a constant flow rate of 1 ml/min. […]"}, "[2]": {"test_system": "C57BL/6 mice", "assay": "PDMS discs loaded with GW2580 crystals implanted SC and IP", "assay_type": "in vivo", "method": "Another study was done by mixing GW2580 crystals at different ratios of 1, 5 and 10% w/w with PDMS to form disks of 2.2 mm thickness and 5 mm diameter prepared at ratio 9:1 (PDMS: curing reagent) and were solidified overnight at 45° C. These disks were implanted into SC and IP spaces in C57BL/6 mice and then retrieved and analyzed at 2 weeks, 4 weeks, and 3 months post implantation in C57BL/6 mice (1 disc/site/mouse). […] Retrieved materials where fixed overnight using 4% paraformaldehyde at 4° C. After fixation, alginate sphere or retrieved tissue samples were washed using 70% alcohol. The materials where then mixed with 4 degrees calcium-cooled Histogel (VWR, CA #60872-486). After the molds hardened, the blocks were processed for paraffin embedding, sectioning and staining according to standard histological methods. Single-cell suspensions of freshly excised tissues were prepared using a gentle MACS Dissociator (Miltenyi Biotec, Auburn, Calif.) according to the manufacturer's protocol. Single-cell suspensions were prepared in a passive PEB dissociation buffer (1×PBS, pH 7.2, 0.5% BSA, and 2 mM EDTA) and suspensions were passed through 70 μm filters (Cat. #22363548, Fisher Scientific, Pittsburgh, Pa.). This process removed the majority of cells adhered to the surface (>90%). All tissue and material sample-derived, single-cell populations were then subjected to red blood cell lysis with 5 ml of 1×RBC lysis buffer (Cat. #00-4333, eBioscience, San Diego, Calif., USA) for 5 min at 4° C. The reaction was terminated by the addition of 20 ml of sterile 1×PBS. The cells remaining were centrifuged at 300-400 g at 4° C. and resuspended in a minimal volume (˜50 μl) of eBioscience Staining Buffer (cat. #00-4222) for antibody incubation. All samples were then co-stained in the dark for 25 min at 4° C. with two of the fluorescently tagged monoclonal antibodies specific for the cell markers CD68 (1 μl (0.5 μg) per sample; CD68-Alexa647, Clone FA-11, Cat. #11-5931, BioLegend), Ly-6G (Gr-1) (1 μl (0.5 μg) per sample; Ly-6G-Alexa-647, Clone RB6-8C5, Cat. #108418, BioLegend), CD11b (1 μl (0.2 μg) per sample; or CD11b-Alexa-488, Clone M1/70, Cat. #101217, BioLegend). For alpha smooth muscle actin (fibrosis) analysis, additional cell aliquots were also fixed in 1% paraformaldehyde and permeabilized with 0.1% triton X-100 before being stained with Cy3-conjugated anti-mouse αSM actin antibody (1:100) (Sigma Aldrich, St. Louis, Mo.). Two ml of eBioscience Flow Cytometry Staining Buffer (cat. #00-4222, eBioscience) was then added, and the samples were centrifuged at 400-500 g for 5 min at 4° C. Supernatants were removed by aspiration, and this wash step was repeated two more times with staining buffer. Following the third wash, each sample was resuspended in 500 μl of Flow Cytometry Staining Buffer and run through a 40 μm filter (Cat. #22363547, Fisher Scientific) for eventual FACS analysis using a BD FACSCalibur (cat. #342975), BD Biosciences, San Jose, Calif., USA). For proper background and laser intensity settings, unstained, single antibody, and IgG (labeled with either Alexa-488 or Alexa-647, BioLegend) controls were also run. For primate cell staining, anti-human CD68 Alexa Fluor-647-conjugated antibody (Clone KP1, Cat. #sc-20060, Santa Cruz, Dallas, Tex.) was used in conjunction with the above BioLegend (anti-mouse/human) CD11b-AF488 antibody."}},
  "data": [
    {"smiles": "COc1ccc(COc2ccc(Cc3cnc(N)nc3N)cc2OC)cc1", "note": "[GW2580, 5-[[3-Methoxy-4-[(4-methoxyphenyl)methoxy]phenyl]methyl]-2,4-pyrimidinediamine]", "values": [
      {"measurement": "drug remaining in retrieved capsules", "setting": "[1]", "result": "significantly larger amount"},
      {"measurement": "foreign body response (plaque on retrieved PDMS discs)", "setting": "[2]; 1, 5 and 10% w/w crystals, 2 and 4 weeks, 3 months", "result": "reduced in a dose-dependent fashion"},
      {"measurement": "remaining drug levels (% loading, HPLC), SC versus IP", "setting": "[2]; 2 weeks, 4 weeks, 3 months", "result": "release was slower in the SC space"},
      {"measurement": "responding macrophages dissociated from discs (FACS)", "setting": "[2]; all time points, IP and SC", "result": "significantly reduced cell numbers"},
      {"measurement": "immune cell infiltration and fibrosis (H&E and Masson's Trichrome)", "setting": "[2]; excised SC and IP tissues, versus blank discs", "result": "significantly reduced immune cell infiltration and fibrosis"},
      {"measurement": "drug retention, PDMS versus alginate", "setting": "[2]; same incubation times", "result": "drug retention was much higher in polymer PDMS"}
    ]}
  ]
}
